Broadly, the melting point is the temperature, or range, at which the solid turns liquid.

Structures are written as SMILES.

`CC(C)c1ccc(C2c3cc(N(C)C(=O)CC(C)(C)C)ccc3OC2(C)C)cc1` (centres undefined) registered a melting point of 78 to 79 °C.

For `CN(C)C(=O)CC1(C)OCCc2c1[nH]c1ccccc21` (centres undefined), the melting point was 149 to 151 °C.

As to `CC(C)Oc1n[nH]cc1C(=O)NCc1ccc(Cl)cc1Cl`, the melting point fell in the range of 185 to 186 °C.

As for `O=C(NC1CCCOC1)c1ccc2nonc2c1` (centres undefined), the melting point lay within 204 to 205 °C.

Take `Cc1cc(Cl)ccc1C(=O)CN(C(=O)C(C)Cl)c1ccccc1` (centres undefined): the melting point came to 128 °C.

Regarding `COc1cc2c(c([N+](=O)[O-])c1)NCCC2=O`, the melting point was in the range of 161 to 162 °C.

With `CC(=O)Nc1cc2c(cc1Br)C(Nc1ccc(C(=O)OC(C)(C)C)c(F)c1)CC2` (centres undefined), the melting point was greater than 70 °C.

`COC(=O)c1c(C)nc(C)c(C(=O)OCC2CCCO2)c1-c1cccc(O)c1` (centres undefined) showed a melting point of 95 to 97 °C.

`CC(=C1SC(=O)NC1=O)c1ccc(OCCOc2c(-c3ccc(F)c(F)c3)n(C)c3ccccc3c2=O)c(F)c1` yielded a melting point of 204 to 206 °C.

`O=C(O)C1C(C=C(Cl)Cl)C12CCC2` (centres undefined) yielded a melting point of 122 to 128 °C.

The compound `CC(=NOCCOc1ccc(C(=O)O)c(O)c1)c1ccccc1` returned a melting point of 149 to 150 °C.

As for `CCOC(=O)C(=NOCc1ccc(OCc2nc(-c3ccccc3)oc2C)cc1)c1ccc(Br)cc1`, the melting point is 105 to 106 °C.

For `CN1Cc2c(C#CI)ncn2-c2cccc(Cl)c2C1=O`, the melting point is 215 to 216 °C.

With `O=[N+]([O-])c1ccc(Sc2nccn2Cc2ccccc2)cc1`, the melting point is 122 to 123 °C.

Take `Cc1cc(OCCN2CCOCC2)nn1-c1ccc2c(O)cccc2c1`: the melting point was less than 70 °C.

Take `CSc1cc(C)nc(SC)c1NC(=O)CCCCCCSc1nc2c(C)c(Cl)cc(C(C)C)c2o1`: the melting point fell in the range of 129 to 131 °C.

With `Brc1c(OCc2nnn[nH]2)ccc2cc(-c3csc(-c4ccccc4)n3)ccc12`, the melting point is 227 to 231 °C.

Compound `CC(C)(C)NCC(O)COc1cccc2nc[nH]c12` (centres undefined) showed a melting point of 203 to 205 °C.

`Nc1ccc(CCOCCCCCCNCC(O)c2cc(Cl)c(N)c(Cl)c2)cc1` (centres undefined) yielded a melting point of 71 to 73 °C.

In the case of `CON=C(C#N)c1ccc(Cl)c(CNC(=O)OC)c1`, the melting point was 104 to 107 °C.

As for `COC(=O)c1ccc(Nc2nccc(-c3ccncc3)n2)cc1`, the melting point is 194 to 196 °C.

Consider `COc1cc2c(cc1OC)-c1cc(=O)[nH]c(=O)n1CC2`, for which the melting point is 323 to 325 °C.

Compound `CC1(C)CC(Nc2nccc3ccccc23)CC(C)(C)N1` registered a melting point of 133 °C.

In turn, `CNCc1ccc2c(c1)C(Cc1ccnc(F)c1)(Cc1ccnc(F)c1)c1ccccc1-2` showed a melting point of 130 to 134 °C.

Regarding `COc1cc(OC)nc(NC(=O)NS(=O)(=O)c2ccccc2CCBr)n1`, the melting point lay in the range of 163 to 166 °C.

Turning to `CCc1c(-c2ccc(O)cc2)c2c(CN(C)C)cc3cccc1n32`, the melting point lay in the range of 176 to 178 °C.

The compound `O=c1oc(-c2ccccc2)cc(O)c1SCCCCc1ccccc1` registered a melting point of 103 to 105 °C.

`O=c1nc(-c2cccc(-n3cccn3)n2)sc2ccccc12`: the melting point lay in the range of 253 to 254 °C.

`CC(C)c1cccc(CO)c1NC(=O)CC1c2ccccc2Oc2ccccc21` yielded a melting point of 155 to 156 °C.

In turn, `COc1cc(OC)c2c(=O)[nH]c(-c3ccc(OCC[N+]4([O-])CCCC4)c(-c4ccc(S(C)(=O)=O)cc4)n3)nc2c1` registered a melting point of 167 to 170 °C.

`COC(=S)OC(C(=O)OC(c1ccccc1)c1ccccc1)c1ccccc1` (centres undefined): the melting point was determined as 74 °C.

On to `O=C(O)CCc1cnoc1-c1ccc(Cl)c(Br)c1`, for which the melting point lay within 177 to 180 °C.

`CC1(C)Oc2ccc(C#N)cc2[C@@H](NC(=NC#N)N2CCCC2)[C@@H]1O` (relative stereo) yielded a melting point of 263 to 264 °C.

The compound `Cc1c(C)c2c(c(C)c1NCc1ccccc1)C(c1ccc(-c3ccccc3)cc1)CO2` (centres undefined) registered a melting point of 77 to 78 °C.

Take `CCOC(=O)Cc1[nH]c(C(=O)OC(C)(C)C)c(CCc2cccc(Cl)c2)c1C(=O)OCC`: the melting point was in the range of 131 to 132 °C.

In turn, `CC(Oc1ccc(Oc2ncc(C(F)(F)F)cc2Cl)cc1)C(=O)Nc1ccc(OC(F)(F)F)cc1` (centres undefined) yielded a melting point of 140 to 141 °C.

The compound `O=C1NC(=O)C(Cc2ccc(C(=O)CCc3ccccc3)cc2)S1` (centres undefined) returned a melting point of 119 to 121 °C.

With `COc1cccc2c1CCC(n1cc[nH]c1=S)C2` (centres undefined), the melting point fell in the range of 233 to 235 °C.

With `O=C(NC1=NCCS1)c1c(C(F)(F)F)nc(-c2ccccc2)c(-c2ccccc2)c1O`, the melting point is 280 °C.

In turn, `OCc1cnoc1-c1ccc(C(F)(F)F)cc1` had a melting point of 106 to 107 °C.

Take `CCCCCCCCCCNC(=O)c1cc(NCC(=O)OC)cc(C(=O)NCCCCCCCCCC)c1`: the melting point was 108 to 109 °C.

`CC(C)Cc1ccc(C(C)C(=O)NCCCCn2cnc3c(N)nc4ccccc4c32)cc1` (centres undefined) showed a melting point of 172 to 173 °C.

In turn, `Cc1cc(C)c(Nc2nc(Nc3ccc(C#N)cc3)nc(Cl)c2Br)c(C)c1` yielded a melting point of 220 to 221 °C.

Compound `COc1ccccc1C(=O)Nc1nc2ccccc2s1` came in with a melting point of 196 to 197 °C.

Take `O=C(NC(=O)c1cccnc1)NC1CCN(Cc2ccc3ncccc3c2)CC1`: the melting point lay in the range of 196 to 198 °C.

For the compound `COc1ccc(C=O)c(Cl)c1OC(C)=O`, the melting point fell in the range of 48 to 50 °C.

For `O=[N+]([O-])c1cc(C(F)(F)F)cc2sc(=S)sc12`, the melting point is 163 to 165 °C.

The compound `COc1cc2c(cc1OC)C(=Cc1cc(O)ccc1[N+](=O)[O-])OC2=O` registered a melting point of 253 °C.

Consider `COc1cc(COc2nn(-c3ccccc3)cc2/C=C/CO)ccc1OCc1nc(-c2ccco2)oc1C`, for which the melting point lay within 120 to 121 °C.

As to `O=C(Nc1ccc2nc(CN3CCOCC3)ccc2c1)c1ccc(-c2ccc(F)cc2)cc1`, the melting point was 211 to 212 °C.

The compound `CCOc1ccc(C(O)CN2CCOCC2)cc1-c1nc2c(C)cccc2c(=O)[nH]1` (centres undefined) returned a melting point of 145 to 147 °C.

`c1ccc2c(c1)C[C@H]1CSC(=Nc3csc4cnccc34)N1C2` displayed a melting point of 180 °C.

As to `CCOC(=O)[C@@H]1C[C@@H](O)CN1S(C)(=O)=O`, the melting point lay within 111 to 113 °C.

`Cc1[nH]c2ccccc2c1C1=C(c2c(C)[nH]c3ccccc23)C(=O)NC1=O` came in with a melting point of 311 to 313 °C.

Regarding `CCCS(=O)c1ncn(C(=O)N(CC)CC)n1` (centres undefined), the melting point was in the range of 50.5 to 51.5 °C.

Consider `Nc1c(NCc2ccccc2)ccnc1Cl`, for which the melting point lay in the range of 176 to 179 °C.

Take `Cc1cc(N2CC=C(C(=O)OC(C)C)CC2)c2cccc(-c3ccc(Cl)cc3Cl)c2n1`: the melting point lay within 131 to 133 °C.

Regarding `COc1c(CC(=O)O)cccc1CC(=O)O`, the melting point was in the range of 184 to 186 °C.

The compound `O=c1c2cc(F)c(F)cc2n(CCF)c(=O)n1OCc1ccccc1` gave a melting point of 145 to 147 °C.

In turn, `COc1cc(N)c(Cl)cc1C(=O)NCC1CCN(CCCCCCCC(=O)c2ccccc2)CC1` gave a melting point of 138 to 140 °C.

`CCCOc1cc2ccccc2c2c(=O)c(-c3ccc(OC)cc3)c[nH]c12`: the melting point fell in the range of 172 to 174 °C.

The compound `COc1ccc(Cn2c(=O)c3ccccc3n(CCCCl)c2=O)cc1` returned a melting point of 124 to 125 °C.

`CCCc1c(OCCCCCOc2ccccc2CCC(=O)O)ccc2c1OCCC2=O` showed a melting point of 75 to 76 °C.

In turn, `CCc1cccc2c3c([nH]c12)C(CC)(CC(O)O)OCC3` (centres undefined) displayed a melting point of 158 to 159 °C.

Regarding `CS(=O)(=O)c1ccc(C(CC2CCCC2)C(=O)Nc2cnccn2)cc1[N+](=O)[O-]` (centres undefined), the melting point is 104 to 108 °C.

Consider `CN(C)C=NS(=O)(=O)c1ccc(Br)cc1`, for which the melting point was 141 to 143 °C.

Consider `CCOC(=O)c1c(-c2ccccc2)n(-c2ccc(OC)cc2)c2ccccc2c1=O`, for which the melting point lay within 246 to 247 °C.

`Nc1ccc(CCNC(=O)C(F)(F)F)cc1` displayed a melting point of 81 to 85 °C.

`Cc1cc2sccc2c(N)n1` displayed a melting point of 136 °C.

With `O=C1NC(=O)c2c1c(-c1ccccc1Cl)cc1c2c2cc(O)ccc2n1CCSc1ccccc1`, the melting point was 262 to 264 °C.

On to `CCOc1cc(C(C)C)c2c(c1)S(=O)(=O)N(CSc1ccccc1)C2=O`, for which the melting point was 112 °C.

In turn, `CCCC(=O)Nc1ccccc1C(F)(F)F` came in with a melting point of 76 °C.

Take `Cc1ccsc1-c1nc(CCl)co1`: the melting point lay within 95 to 96 °C.

In the case of `O=C(CC1(c2ccccc2)CCCC1)C(=O)Nc1ccc2c(c1)COC2=O`, the melting point lay in the range of 140 to 144 °C.

Take `O=C(NCc1ccc(Cl)cc1)c1cnc2c(F)cc(O)cc2c1O`: the melting point was in the range of 310 to 313 °C.

As to `COc1ccc(Cc2nc3c(N)nc4ccccc4c3n2CCOc2ccccc2)cc1`, the melting point lay in the range of 201 to 204 °C.

The compound `CON=C(c1cc(C)on1)c1ccccc1COc1ncc(Cl)cc1C(F)(F)F` showed a melting point of 120 to 121 °C.

`COC(=O)CSCC(=O)c1ccc2[nH]c(=O)[nH]c2c1` yielded a melting point of 177 to 178 °C.

Compound `CCCCCCCCCCCCCCCCCCOc1ccc(C(=O)C(=O)O)cc1` yielded a melting point of 78 to 80 °C.

With `O=C(NCC1CCN(c2cc3nc(C(=O)O)c(=O)[nH]c3cc2[N+](=O)[O-])C1)Nc1ccccc1` (centres undefined), the melting point is greater than 300 °C.

`Cc1ccccc1C(=O)NCN1CCN(c2ncccc2C#N)CC1` yielded a melting point of 124 to 127 °C.

`CC(C)c1ccc(N2CC(=O)N(c3cccc(C(=O)O)c3)C2=O)cc1`: the melting point was 224 to 226 °C.

Consider `N#Cc1cc(-c2ccc(Cl)c(Cl)c2)[nH]c1Cl`, for which the melting point is greater than 200 °C.

As for `COc1cc(C(C)C)ccc1C1(NC(N)=O)C(=O)c2ccccc2C1=O`, the melting point was 272 to 274 °C.

`Nc1cc(=O)nc(Nc2ccccc2)n1-c1ccc(Cl)cc1` showed a melting point of 216 to 222 °C.

`CCN1CNC(=N[N+](=O)[O-])N(Cc2ccc(Cl)nc2)C1` registered a melting point of 124 to 125 °C.

Turning to `CSc1nc(N)nc2c1ncn2COCCO`, the melting point fell in the range of 188 to 191 °C.

Regarding `COC(=O)c1ccc(COC(=O)Nc2ccc(-c3ccccc3)n(CC(=O)NC(Cc3ccccc3)C(=O)C(F)(F)F)c2=O)cc1` (centres undefined), the melting point is 186 to 189 °C.

`COc1cc(OC)c(N2CCCC2)cc1/C=C/C(=O)c1ccc(S(=O)(=O)Nc2cc(C)on2)cc1` registered a melting point of 164 to 165 °C.
